Data from patent US20250263385A1 (SANOFI, priority 2022, published 2025).

Test system: Human erythropoietin (hEPO) levels in sera
Test: Delivery of hEPO mRNA by intramuscular administration of lipid nanoparticles; serum hEPO by ELISA
Assay type: in vivo, Mouse (female BALB/cJ)
Details: single IM injection of 0.1 μg hEPO mRNA LNP in 30 μL into right gastrocnemius, female BALB/cJ mice, cationic lipids in formulation 1, MC3 in formulation 2; for hEPO 6 Hr (ng/mL) Mean: 6 hours post dose; for hEPO 24 Hr (ng/mL) Mean: 24 hours post dose
Description: Lipid nanoparticle formulations of Table 3 were prepared by Process A. All of the lipid nanoparticle formulations comprised hEPO mRNA and the different lipids (Cationic Lipid: DMG-PEG2000: Cholesterol: DOPE/DSPC) in the mol % ratios specified in Table 3.
The cationic lipids of the present invention were evaluated with lipid nanoparticle formulation 1. MC3 was evaluated with lipid nanoparticle formulation 2, which is a typical MC3 formulation.
In summary, lipid screening studies were conducted with female BALB/cJ mice 6-8 weeks of age. Mice were dosed with 0.1 μg in 30 μL of LNPs by a single intramuscular (IM) injection into the gastrocnemius leg muscle. Blood samples were taken 6 and 24 hours post injection and hEPO levels were measured in the blood serum of the mice using an ELISA assay according to the manufacture's protocol. WO2022/099003 A1 also describes an in vivo assay for intramuscular administration (e.g. on page 46, paragraph [00206]).
Treatment Regimen: On Day 1, animals from Groups 1-13 were dosed via intramuscular injection while under light isoflurane anesthesia according to the study design table above. Animals in Groups 1-13 were injected with EPO mRNA LNPs in the right leg only. Group 1 animals received MC3 control. The cationic lipid MC3 is the current gold standard for in vivo delivery of e.g. siRNA (see WO2010/144740).
Interim Sample Collections: Interim whole blood (^˜50 μL) was collected by tail snip or saphenous vein at 6 and 24 hours post dose administration (±5%). Blood samples were collected into serum separator tubes, allowed to clot at room temperature for at least 10 minutes, centrifuged at ambient temperature at minimum 1000 g for 10 minutes and the serum was extracted. All serum samples were stored at nominally −70° C. until analysis hEPO by the Testing Facility. The results of the EPO analysis were included in the Data Submission.
Terminal Blood Collections: Whole blood was collected via cardiac puncture into serum separator tube, allowed to clot at room temperature for at least 10 minutes, centrifuged at ambient temperature at minimum 1000 g for 10 minutes and the serum was extracted. Serum samples were stored at nominally −70° C. until analyzed for hEPO by the Test Facility.
ELISA Assay: Human erythropoietin (hEPO) levels in sera samples were determined by ELISA kit (R&D systems, Cat #DEP-00) according to the manufactory instruction and the results were included in the Data Submission. The “shaker” protocol was used. The serum samples were diluted between 1:40 and 1:100.

Row | SMILES | hEPO 6 Hr (ng/mL) Mean [ng/mL] | hEPO 24 Hr (ng/mL) Mean [ng/mL]
1 | CCCCOC(=O)CCCCCCC(O)CN(CCCSSCCN1CCN(CCOC(=O)CCCCN(CC(O)CCCCCCC(=O)OCC(CC)CC)CC(O)CCCCCCC(=O)OCC(CC)CC)CC1)CC(O)CCCCCCC(=O)OCCCC (centres unmarked) [Compound 6, Dibutyl 9,9′-((3-((2-(4-(2-((5-(bis(9-(2-ethylbutoxy)-2-hydroxy-9-oxononyl)amino)-pentanoyl)oxy)ethyl)piperazin-1-yl)ethyl)disulfaneyl)propyl)azanediyl)bis(8-hydroxynonanoate)] | 8.72 | 8.90
2 | CCCCOC(=O)CCCCCCC(O)CN(CCCCSSCCN1CCN(CCOC(=O)CCCCN(CC(O)CCCCCCC(=O)OCC(CC)CC)CC(O)CCCCCCC(=O)OCC(CC)CC)CC1)CC(O)CCCCCCC(=O)OCCCC (centres unmarked) [Compound 12] | 8.06 | 4.86
3 | CCC(CC)COC(=O)CCCCCCC(O)CN(CCCC(=O)OCCN1CCN(CCSSCCCN(CC(O)CCCCCCC(=O)OCCC(C)C)CC(O)CCCCCCC(=O)OCCC(C)C)CC1)CC(O)CCCCCCC(=O)OCC(CC)CC (centres unmarked) [Compound 29, Bis(2-ethylbutyl) 9,9′-((4-(2-(4-(2-((3-(bis(2-hydroxy-9-(isopentyloxy)-9-oxononyl)-amino)propyl)disulfaneyl)ethyl)piperazin-1-yl)ethoxy)-4-oxobutyl)azanediyl)bis(8-hydroxynonanoate)] | 10.01 | 4.93
4 | CCCCOC(=O)CCCCCCC(O)CN(CCCC(=O)OCCN1CCN(CCSSCCCN(CC(O)CCCCCCC(=O)OCC(CC)CC)CC(O)CCCCCCC(=O)OCC(CC)CC)CC1)CC(O)CCCCCCC(=O)OCCCC (centres unmarked) [Compound 42, Dibutyl 9,9′-((5-(2-(4-(2-((4-(bis(9-(2-ethylbutoxy)-2-hydroxy-9-oxononyl)amino)propyl)disulfaneyl)ethyl)piperazin-1-yl)ethoxy)-4-oxobutyl)azanediyl)bis(8-hydroxynonanoate)] | 9.07 | 3.06
5 | CCC(CC)COC(=O)CCCCCCC(O)CN(CCCSSCCN1CCN(CCOC(=O)CCCN(CC(O)CCCCC(=O)OCCC(C)C)CC(O)CCCCC(=O)OCCC(C)C)CC1)CC(O)CCCCCCC(=O)OCC(CC)CC (centres unmarked) [Compound 45, Bis(2-ethylbutyl) 9,9′-((3-((2-(4-(2-((4-(bis(2-hydroxy-7-(isopentyloxy)-7-oxoheptyl)amino)-butanoyl)oxy)ethyl)piperazin-1-yl)ethyl)disulfaneyl)propyl)azanediyl)bis(8-hydroxynonanoate)] | 8.33 | 3.99
6 | CCC(CC)COC(=O)CCCCCCC(O)CN(CCCSSCCN1CCN(CCOC(=O)CCCN(CC(O)CCCC(=O)OC(CC)CC)CC(O)CCCC(=O)OC(CC)CC)CC1)CC(O)CCCCCCC(=O)OCC(CC)CC (centres unmarked) [Compound 46, Bis(2-ethylbutyl) 9,9′-((3-((2-(4-(2-((4-(bis(2-hydroxy-6-oxo-6-(pentan-3-yloxy)hexyl)-amino)butanoyl)oxy)ethyl)piperazin-1-yl)ethyl)disulfaneyl)propyl)azanediyl)bis(8-hydroxynonanoate)] | 12.38 | 5.78
7 | CCC(CC)COC(=O)CCCCCCC(O)CN(CCCC(=O)OCCN1CCN(CCSSCCCCN(CC(O)CCCCC(=O)OCC(CC)CC)CC(O)CCCCC(=O)OCC(CC)CC)CC1)CC(O)CCCCCCC(=O)OCC(CC)CC (centres unmarked) [Compound 50, Bis(2-ethylbutyl) 9,9′-((4-(2-(4-(2-((4-(bis(7-(2-ethylbutoxy)-2-hydroxy-7-oxoheptyl)amino)-butyl)disulfaneyl)ethyl)piperazin-1-yl)ethoxy)-4-oxobutyl)azanediyl)bis(8-hydroxynonanoate)] | 14.94 | 8.87
8 | CCC(CC)COC(=O)CCCCCCC(O)CN(CCCCC(=O)OCCN1CCN(CCSSCCCCN(CC(O)CCCCC(=O)OCC(CC)CC)CC(O)CCCCC(=O)OCC(CC)CC)CC1)CC(O)CCCCCCC(=O)OCC(CC)CC (centres unmarked) [Compound 51, Bis(2-ethylbutyl) 9,9′-((5-(2-(4-(2-((4-(bis(7-(2-ethylbutoxy)-2-hydroxy-7-oxoheptyl)amino)-butyl)disulfaneyl)ethyl)piperazin-1-yl)ethoxy)-5-oxopentyl)azanediyl)bis(8-hydroxynonanoate)] | 16.39 | 9.03
9 | CCCCOC(=O)CCCCCCC(O)CN(CCCCC(=O)OCCN1CCN(CCSSCCCCN(CC(O)CCCCCCC(=O)OCC(CC)CC)CC(O)CCCCCCC(=O)OCC(CC)CC)CC1)CC(O)CCCCCCC(=O)OCCCC (centres unmarked) [Compound 53, Dibutyl 9,9′-((5-(2-(4-(2-((4-(bis(9-(2-ethylbutoxy)-2-hydroxy-9-oxononyl)amino)-butyl)disulfaneyl)ethyl)piperazin-1-yl)ethoxy)-5-oxopentyl)azanediyl)bis(8-hydroxynonanoate)] | 9.07 | 4.66
10 | CCC(CC)COC(=O)CCCCCCC(O)CN(CCCCSSCCN1CCN(CCOC(=O)CCCN(CC(O)CCCCC(=O)OCC(CC)CC)CC(O)CCCCC(=O)OCC(CC)CC)CC1)CC(O)CCCCCCC(=O)OCC(CC)CC (centres unmarked) [Compound 57, Bis(2-ethylbutyl) 9,9′-((4-((2-(4-(2-((4-(bis(7-(2-ethylbutoxy)-2-hydroxy-7-oxoheptyl)amino)butanoyl)oxy)ethyl)piperazin-1-yl)ethyl)disulfaneyl)butyl)azanediyl)bis(8-hydroxynonanoate)] | 13.33 | 8.19
11 | CCCCOC(=O)CCCCCCC(O)CN(CCCCC(=O)OCCN1CCN(CCSSCCCN(CC(O)CCCCC(=O)OC(C)C)CC(O)CCCCC(=O)OC(C)C)CC1)CC(O)CCCCCCC(=O)OCCCC (centres unmarked) [Compound 78] | 7.05 | 3.30
12 | CCC(CC)COC(=O)CCCCC(O)CN(CCCSSCCN1CCN(CCOC(=O)CCCN(CC(O)CCCCC(=O)OCC(CC)CC)CC(O)CCCCC(=O)OCC(CC)CC)CC1)CC(O)CCCCC(=O)OCC(CC)CC (centres unmarked) [Compound 92, Bis(2-ethylbutyl) 7,7′-((3-((2-(4-(2-((4-(bis(7-(2-ethylbutoxy)-2-hydroxy-7-oxoheptyl)amino)butanoyl)oxy)ethyl)piperazin-1-yl)ethyl)disulfaneyl)propyl)azanediyl)bis(6-hydroxyheptanoate)] | 13.11 | 5.75
13 | CCCCC/C=C\C/C=C\CCCCCCCCC(CCCCCCCC/C=C\C/C=C\CCCCC)OC(=O)CCCN(C)C [MC3, reference compound] | 3.94 | 2.44
